Data from US20230116972A1, “CD38 MODULATORS AND METHODS OF USE THEREOF” (Cytokinetics, Inc., priority 2021, published 2023).

Assays:
mouse CD38 = biological target: T1, mouse CD38 (Mus musculus, UniProt P56528); experiment: mouse recombinant CD38 enzyme assay (hydrolysis of NAD+); type: biochemical; settings: read-out: mCD38 BioChem IC50
T1 sequence (P56528 1-304): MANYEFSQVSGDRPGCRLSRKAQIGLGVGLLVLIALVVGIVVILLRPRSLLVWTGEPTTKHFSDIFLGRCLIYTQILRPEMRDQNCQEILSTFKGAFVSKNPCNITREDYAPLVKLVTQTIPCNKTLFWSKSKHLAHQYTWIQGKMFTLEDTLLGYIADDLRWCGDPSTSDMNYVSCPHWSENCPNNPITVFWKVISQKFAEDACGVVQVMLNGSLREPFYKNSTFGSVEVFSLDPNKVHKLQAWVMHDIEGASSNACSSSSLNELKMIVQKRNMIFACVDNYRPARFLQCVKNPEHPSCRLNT
Outline: (§1)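 Residual substrate after a one-hour room-temperature incubation of recombinant CD38 with NAD+ and test compound is measured by an ADH/diaphorase coupled resorufin signal (540 nm excitation, 590 nm emission); reduced NAD+ consumption reflects inhibition.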

[1] = biological target: T2, endogenous CD38 in HL60 cells (Homo sapiens, UniProt P28907); experiment: cellular CD38 assay in HL60 cells (cellular NAD levels); type: cell-based; settings: all-trans retinoic acid, 24 hours, read-out: hCD38 HL60 ATRA NAD Cell Diaphorase IC50
T2 construct: endogenous in cells; host or cells: HL60 (leukemic cells, treated with all-trans retinoic acid)
T2 sequence (P28907 1-300): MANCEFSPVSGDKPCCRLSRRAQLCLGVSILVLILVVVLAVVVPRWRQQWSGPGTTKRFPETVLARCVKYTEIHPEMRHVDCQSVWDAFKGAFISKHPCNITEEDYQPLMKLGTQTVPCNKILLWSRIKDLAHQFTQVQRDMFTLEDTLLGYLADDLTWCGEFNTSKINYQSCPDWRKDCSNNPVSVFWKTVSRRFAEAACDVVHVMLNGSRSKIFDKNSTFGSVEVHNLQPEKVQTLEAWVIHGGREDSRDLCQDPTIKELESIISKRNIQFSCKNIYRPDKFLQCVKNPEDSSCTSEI
Procedure: The compounds described herein were also assayed for their ability to inhibit the endogenous CD38 in a native cellular environment in the cellular CD38 assay, which measures the ability of the compound to modulate cellular NAD levels. […] The assays were initiated by plating 20 μL of HL60 cells in culture medium, at a density of 20000 cells per well to a 384-well Corning™ Multiwell Plates. Compounds in DMSO were added to the plates in a volume of 120 nL using the Labcyte Echo Liquid Handlers. […] The plates are then incubated for 24 hours. 50 μL of a readout-solution containing 0.2 U/mL Diaphorase enzyme, 40 uM resazurin, 10 uM FMN, 0.8 U/mL Alcohol dehydrogenase, 3% ethanol, 0.4 mg/mL bovine serum albumin, 0.2% Triton X-100 in 100 mM Tris-HCl, 30 mM EDTA, pH 8.4. The plates were read for fluorescence (Excitation/Emission=540 nm/590 nm) using an EnVision plate reader after 60 mins of incubation at ambient temperature. Note that, in Table 5, the “Compound No” corresponds to the compound numbers in Table 1.

human CD38 = biological target: T3, human CD38 (Homo sapiens, UniProt P28907); experiment: human recombinant CD38 enzyme assay (hydrolysis of NAD+); type: biochemical; settings: human recombinant CD38, 0.4 nM enzyme, 62.5 μM NAD+; read-out: hCD38 BioChem IC50
T3 sequence (P28907 1-300): T2 sequence (P28907 1-300)
Outline: as §1

SMILES | IC50 (mouse CD38) | IC50 [1] | IC50 (human CD38)
Cc1cc(NC(=O)c2cccc(-n3ccnc3)n2)ccn1 [Compound 21, 6-(1H-imidazol-1-yl)-N-(2-methylpyridin-4-yl)picolinamide] | 3 nM | 273 nM | 3 nM
CC(C)c1cc(C(=O)N[C@H]2CC[C@H](C(F)F)CC2)nc(-n2ccnc2)n1 [Compound 168, N-((1r,4r)-4-(difluoromethyl)cyclohexyl)-2-(1H-imidazol-1-yl)-6-isopropylpyrimidine-4-carboxamide] | 47 nM | 8650 nM | 313 nM
COCCO[C@H]1CC[C@H](NC(=O)c2cccc(-c3cncn3C)n2)CC1 [Compound 65, N-(4-(2-methoxyethoxy)cyclohexyl)-6-(1-methyl-1H-imidazol-5-yl)picolinamide] | 62 nM | 7690 nM | 224 nM
CC(C)(O)c1cc(C(=O)Nc2ccc(C(F)(F)F)nc2)nc(-n2ccnc2)n1 [Compound 175, 6-(2-hydroxypropan-2-yl)-2-(1H-imidazol-1-yl)-N-(6-(trifluoromethyl)pyridin-3-yl)pyrimidine-4-carboxamide] | 335 nM | 6460 nM | 330 nM
Cc1ccc(NC(=O)c2cccc(-n3ccnc3)n2)cn1 [Compound 20, 6-(1H-imidazol-1-yl)-N-(6-methylpyridin-3-yl)picolinamide] | 8 nM | 365 nM | 9 nM
COc1cc(C(=O)Nc2ccc(C(F)F)nc2)nc(-c2cncs2)n1 [Compound 131, N-(6-(difluoromethyl)pyridin-3-yl)-6-methoxy-2-(thiazol-5-yl)pyrimidine-4-carboxamide] | 23 nM | 2910 nM | 66 nM
O=C(NC12CC(O)(C1)C2)c1cccc(-n2ccnc2)n1 [Compound 15, N-(3-hydroxybicyclo[1.1.1]pentan-1-yl)-6-(1H-imidazol-1-yl)picolinamide] | 748 nM | 9960 nM | 1140 nM
CC(C)c1cc(C(=O)N[C@H]2CC[C@H](C(F)F)CC2)nc(-c2cncn2C)n1 [Compound 172, N-((1r,4r)-4-(difluoromethyl)cyclohexyl)-6-isopropyl-2-(1-methyl-1H-imidazol-5-yl)pyrimidine-4-carboxamide] | 5 nM | 2950 nM | 21 nM
Cn1cncc1-c1cc(C(C)(C)C)nc(C(=O)Nc2ccc(C(F)F)nc2)n1 [Compound 189, 4-(tert-butyl)-N-(6-(difluoromethyl)pyridin-3-yl)-6-(1-methyl-1H-imidazol-5-yl)pyrimidine-2-carboxamide] | 261 nM | 8510 nM | 333 nM
O=C(Nc1ccc(C(F)(F)F)nc1)c1ccnc(-n2ccnc2)n1 [Compound 67, 2-(1H-imidazol-1-yl)-N-(6-(trifluoromethyl)pyridin-3-yl)pyrimidine-4-carboxamide] | 9 nM | 409 nM | 4 nM
O=C(N[C@H]1CC[C@H](CO)CC1)c1cc(C2CC2)nc(-c2cncs2)n1 [Compound 141, 6-cyclopropyl-N-((1r,4r)-4-(hydroxymethyl)cyclohexyl)-2-(thiazol-5-yl)pyrimidine-4-carboxamide] | 28 nM |  | 761 nM
Cn1cncc1-c1nc(C(=O)Nc2ccc(C(F)F)nc2)cc(C2CCC2)n1 [Compound 183, 6-cyclobutyl-N-(6-(difluoromethyl)pyridin-3-yl)-2-(1-methyl-1H-imidazol-5-yl)pyrimidine-4-carboxamide] | 2 nM |  | 7 nM
O=C(Nc1ccc(C(F)F)nc1)c1cc(C2CCC2)nc(-n2ccnc2)n1 [Compound 186, 6-cyclobutyl-N-(6-(difluoromethyl)pyridin-3-yl)-2-(1H-imidazol-1-yl)pyrimidine-4-carboxamide] | 5 nM |  | 10 nM

Now from value to molecule:

IC50 (mouse CD38) | IC50 [1] | IC50 (human CD38) | SMILES
19.7 nM | 1970 nM | 36.4 nM | COc1ccc([C@H]2C[C@H](NC(=O)c3nccc(-n4ccnc4)n3)C2)cc1 [Compound 217, 4-(1H-imidazol-1-yl)-N-((1r,3r)-3-(4-methoxyphenyl)cyclobutyl)pyrimidine-2-carboxamide]
15.3 nM | 2100 nM | 40.9 nM | Cn1cncc1-c1ccnc(C(=O)N[C@H]2CC[C@H](NCC(F)(F)F)CC2)n1 [Compound 264, 4-(1-methyl-1H-imidazol-5-yl)-N-((1r,4r)-4-((2,2,2-trifluoroethyl)amino)cyclohexyl)pyrimidine-2-carboxamide]
4.4 nM | 209 nM | 1.4 nM | Cn1cncc1-c1ccnc(C(=O)Nc2ccc(OC(F)F)nc2)n1 [Compound 276, N-(6-(difluoromethoxy)pyridin-3-yl)-4-(1-methyl-1H-imidazol-5-yl)pyrimidine-2-carboxamide]
1.8 nM | 2280 nM | 13.7 nM | CO[C@H]1CC[C@H](NC(=O)c2cc([C@H]3CC[C@@H](OC)CC3)nc(-c3cncn3C)n2)CC1 [Compound 315, N-((1r,4R)-4-methoxycyclohexyl)-6-((1s,4S)-4-methoxycyclohexyl)-2-(1-methyl-1H-imidazol-5-yl)pyrimidine-4-carboxamide]
39.1 nM | 3100 nM | 86.3 nM | O=C(N[C@H]1CC[C@H](CO)CC1)c1nccc(-n2ccnc2)n1 [Compound 261, N-((1r,4r)-4-(hydroxymethyl)cyclohexyl)-4-(1H-imidazol-1-yl)pyrimidine-2-carboxamide]
2 nM | 1470 nM | 15 nM | CO[C@H]1CC[C@H](NC(=O)c2cc([C@H]3CC[C@H](OC)CC3)nc(-c3cncn3C)n2)CC1 [Compound 316, N,6-bis((1r,4R)-4-methoxycyclohexyl)-2-(1-methyl-1H-imidazol-5-yl)pyrimidine-4-carboxamide]
176 nM | 4480 nM | 251 nM | Cn1cncc1-c1ccnc(C(=O)NC23CC(C(C)(C)O)(C2)C3)n1 [Compound 294, N-(3-(2-hydroxypropan-2-yl)bicyclo[1.1.1]pentan-1-yl)-4-(1-methyl-1H-imidazol-5-yl)pyrimidine-2-carboxamide]
203 nM |  | 933 nM | COCCO[C@H]1C[C@H](NC(=O)c2nccc(-c3cncn3C)n2)C1 [Compound 222, N-((1r,3r)-3-(2-methoxyethoxy)cyclobutyl)-4-(1-methyl-1H-imidazol-5-yl)pyrimidine-2-carboxamide]
46.9 nM |  | 417 nM | COCCO[C@H]1CC[C@H](NC(=O)c2nccc(-c3cncn3C)n2)C1 [Compound 344, N-((1S,3S)-3-(2-methoxyethoxy)cyclopentyl)-4-(1-methyl-1H-imidazol-5-yl)pyrimidine-2-carboxamide]
1.5 nM |  | 1.8 nM | Cn1cncc1-c1ncc(F)c(C(=O)Nc2ccc(OC(F)F)nc2)n1 [Compound 338, N-(6-(difluoromethoxy)pyridin-3-yl)-5-fluoro-2-(1-methyl-1H-imidazol-5-yl)pyrimidine-4-carboxamide]
327 nM |  | 708 nM | Cn1cncc1-c1ccnc(C(=O)N[C@H]2C[C@@H](c3ccnc(C(F)(F)F)c3)C2)n1 [Compound 266, 4-(1-methyl-1H-imidazol-5-yl)-N-((1s,3s)-3-(2-(trifluoromethyl)pyridin-4-yl)cyclobutyl)pyrimidine-2-carboxamide]
118 nM |  | 369 nM | Cn1cncc1-c1ccnc(C(=O)N[C@@H]2CC[C@@H](O)C2)n1 [Compound 302, N-((1R,3R)-3-hydroxycyclopentyl)-4-(1-methyl-1H-imidazol-5-yl)pyrimidine-2-carboxamide]
459 nM |  | 1630 nM | COCCO[C@H]1C[C@H](NC(=O)c2nccc(-n3ccnc3)n2)C1 [Compound 223, 4-(1H-imidazol-1-yl)-N-((1r,3r)-3-(2-methoxyethoxy)cyclobutyl)pyrimidine-2-carboxamide]
